The text below walks through data of EP0416248A2, “Use of vitamine B6 for reducing elevated serotonin levels” (priority 1989, dated 1991).

In data set [1] the test system is B6 dependent intracellular pathways. Put plainly: Very low doses of PN in humans. It counts as in vivo. Particulars: 0,02 mg/kg in humans.
Data set [2] deals with vitamin B6 levels in human plasma and cells. Nature of the data set: Applicant's investigations of enprofylline and vitamin B6 levels.
The next data set concerns the target T1, PL-kinase (Homo sapiens, UniProt O00764).
T1 sequence (O00764 1-312): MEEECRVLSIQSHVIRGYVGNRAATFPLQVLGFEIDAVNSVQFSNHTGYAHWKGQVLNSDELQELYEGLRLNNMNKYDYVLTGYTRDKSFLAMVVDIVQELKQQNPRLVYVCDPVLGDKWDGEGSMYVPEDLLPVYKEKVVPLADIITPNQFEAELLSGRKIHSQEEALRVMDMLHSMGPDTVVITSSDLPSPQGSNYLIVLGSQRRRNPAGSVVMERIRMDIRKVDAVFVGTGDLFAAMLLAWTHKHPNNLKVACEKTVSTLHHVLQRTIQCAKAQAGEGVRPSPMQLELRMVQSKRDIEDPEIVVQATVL
Put plainly: Enzyme kinetic studies of PL-kinase inhibition. The data set is classed as biochemical.

A further data set deals with serotonin. The data set is classed as in vivo, humans. The method, then: Studies on humans: The study was approved by the University Human Ethics Committee. Seven apparently healthy, young male volunteers aged 23 ± 2.4 ( ± SD) years gave informed consent to participate in the study. Each participant received theophylline (slow release) at a dosage of approximately 5 mg/kg body weight/day for one week. Thereafter, the theophylline dosage was increased to maintain plasma theophylline levels of approx. 10 mg/liter for 15 weeks. During the last week of the study (16th week) the participants were supplemented with 10 mg of vitamin B6 (B6) as herein described per day.
Clin. Chem. 35: 43-47. Serotonin concentrations were subsequently determined by HPLC according to the method of Tsuchiya et al.)

Data set [3] has as its system glutamate pyruvate transaminase (GPT) in red blood cells. It counts as in vivo, human. The method, then: The inventor carried out clinical tests in human volunteers to investigate the effect of theophylline on glutamate pyruvate transaminase (GPT) in red blood cells, which plays an important biochemical role. […] When theophylline was administered there took place a dramatic drop in both PLP due to the inactivation of the kinase, and after approximately 28 days, also of RBC GPT levels as newly formed RBC (produced in the bone marrow under conditions of reduced PLP availability) begin to appear in the circulation.
As predicted, the body did indeed try to compensate for this by forming progressively more kinase. […] Thus the increased levels of kinase were unable to reverse the theophylline induced PLP deficiency and the concommittant GPT deficiency.

Like-named read-outs stand apart in the source and are kept apart here.

On to `Cc1ncc(CO)c(C=O)c1O` [PL, pyridoxal], for which the half-life (in vivo) was in the range of 30 to 40 min.

`Cc1ncc(CO)c(CO)c1O` [PN, pyridoxine] displayed a half-life (plasma) of 12 min. In data set [1], the “extracellular PL and PLP levels” value was “without affecting extracellular PL and PLP levels materially”; the “influence on B6 dependent intracellular pathways” value is given as “profound influence”.

For the compound `CCCn1c(=O)[nH]c(=O)c2[nH]cnc21` [enprofylline, 3-propylxanthine], the “effect on vitamin B6 levels in human plasma and cells” value in data set [2] is given as “adverse effect”.

`Cn1c(=O)c2[nH]cnc2n(C)c1=O` [theophylline]: the “type of PL-kinase inhibition” value at PL-kinase was “non-competitive”. Also, the “Urinary serotonin excretion, Basal” value in the data set with serotonin (112 days of theophylline treatment, preceded by 1 week of vitamin B6 supplementation (10 mg/day), mean (SD)) is reported as 0.562 (0.127) umol/24 h. Further, in the data set on serotonin (human, in vivo), the “Urinary serotonin excretion after tryptophan loading” value was “the observed changes were not statistcially significant”. In addition, in data set [3] (human, in vivo), the PLP entry was “dramatic drop”; the “PLP content and GPT content” value is given as “remained depressed for as long as 100 days”.

On to `Cc1ncc(CO)c(CO)c1O.Cl` [vitamin B6], for which the urinary serotonin excretion result in the data set on serotonin (one week of B6 supplementation (10 mg per day) during theophylline therapy) is given as “returned urinary serotonin excretion to pre-treatment levels”. Further, the “PLP deficiency induced by the xanthine bronchodilator” value in data set [3] (low dosage supplementation with Vitamin B6) was “almost immediately reversed”.
